Measurements as given in patent US20190192524A1, “Modulators of Caspase-6” (The University of British Columbia, priority 2014, published 2019).

What was measured:
Format in all cases: cell-based
[1] = biological target: T1, human caspase 6 lacking the pro-domain (Homo sapiens, UniProt P55212); assay: Intracellular Htt cleavage by Western blot in co-transfected COS-7 cells; set-up: DDK-tag (C); expressed in transfected cells; host or cells: COS-7
T1 sequence (P55212 with tags, fused parts or gaps): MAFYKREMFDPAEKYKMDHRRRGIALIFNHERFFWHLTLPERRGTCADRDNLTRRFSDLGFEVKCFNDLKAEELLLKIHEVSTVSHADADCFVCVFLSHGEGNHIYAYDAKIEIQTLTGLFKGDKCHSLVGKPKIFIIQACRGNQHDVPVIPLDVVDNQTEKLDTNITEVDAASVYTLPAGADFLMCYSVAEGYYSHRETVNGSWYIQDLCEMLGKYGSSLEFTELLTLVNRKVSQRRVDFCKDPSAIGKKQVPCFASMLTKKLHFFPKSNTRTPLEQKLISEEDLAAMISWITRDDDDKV
Protocol: COS-7 cells were co-transfected with the 4c htt fragment and the human caspase-6 lacking the pro-domain which leads to fast autoactivation of the caspase-6 enzyme and the generation of the 586 aa Htt cleavage fragment. The co-transfected cells were exposed to either 10 uM of the PG3d compound, 3 uM of the Q-VD-Oph pan-caspase inhibitor or were left untreated. Non-transfected cells were included as a negative control and the purified 586 aa Htt fragment was included as a positive control. Cell lysates were subjected to Western blotting and the 586AA fragment generated intracellularly was detected with Htt antibody 2166 (Millipore). Caspase-6 expression and activation was assessed by Western blotting using antibody HD91 (Ehrnhoefer et al, HMG, 2014. 23(3):717-29).
COS-7 cells were co-transfected with the 4c htt fragment and the human caspase-6 lacking the pro-domain which leads to fast autoactivation of the caspase-6 enzyme and the generation of the 586 aa Htt cleavage fragment. […] Non-transfected cells were included as a negative control and the purified 586 aa Htt fragment was included as a positive control. […] The cell lysates were also assayed for the levels of active caspase 6 enzyme as shown in the lower panel of FIG. 5B.

[2] = biological target: T1, human caspase 6 lacking the pro-domain; assay: Lamin A cleavage in HEK 293 cells overexpressing caspase-6 (Mesoscale ELISA); set-up: The transfected DNA encodes amino acids 24-293 of the human caspase 6 enzyme with a C-terminal DDK tag; DDK-tag (C); expressed in transfected cells; host or cells: HEK 293; details: 24 hr incubation; cleaved lamin A quantified; read-out: HEK intracellular IC50
Protocol: HEK 293 cells were grown in DMEM supplemented with 10% fetal bovine serum, 1%/penicillin/streptomycin and 0.5% glutamine. Transfections were performed using the Fugene reagent (Roche) according to manufacturer's instructions. The transfected DNA encodes amino acids 24-293 of the human caspase 6 enzyme with a C-terminal DDK tag under the control of a CMV promoter (vector pCMVSport6) (SEQ ID NO: 2). The transfected HEK 293 were used to measure the intracellular activity of caspase-6 as evidenced by cleavage of the lamin substrate (described below).
The quantitative assessment of intracellular lamin cleavage in caspase-6 transfected HEK 293 cells was done as described previously (Ehrnhoefer et al. PLoS One, 2011. 6(11):e27680) Briefly, HEK 293 cell lysates were adjusted to 1 μg protein/μl in lysis buffer, diluted to 0.2 μg/μl in PBS and 5 μl were added to a Multi-Array high-bind 96 well plate (Mesoscale discovery). After incubation at room temperature for 1 h, the wells were blocked by adding 150 μl 5% BSA in PBS, followed by further incubation at room temperature for 1 h. Wells were then washed 3× with 150 μl PBS+0.05% Tween, and 25 μl antibody mix was added (Cell signaling #2036 at 1:100 dilution, Mesoscale discovery goat-anti-rabbit sulfo-tag at 1:500 dilution in PBS with 1% BSA). After lh incubation at room temperature, the wells were washed 3× with 150 μl PBS+0.05% Tween, and 150 μl/well 2× reading reagent (Mesoscale discovery) was added. The plate was read on a Sector imager 6000 (Mesoscale discovery).
The PG3 analog compounds were also tested for their ability to inhibit caspase-6 within cultured cells. HEK 293 cells were transfected with human caspase 6 lacking the pro-domain and were incubated with increasing concentrations of the PG3 analogs. After a 24 hr incubation, the excess compound was washed away, the cells were lysed and the amount of cleaved lamin A protein was quantified by the Mesoscale ELISA method.

[3] = biological target: T2, interaction between 1212AA Htt and caspase-6 (Homo sapiens, UniProt P55212); assay: Co-immunoprecipitation of Htt with caspase-6 antibody from COS-7 lysates; details: 10 uM compound, vs DMSO
T2 construct: DDK-tag (C); expressed in transfected cells; host or cells: COS-7
T2 sequence (P55212 with tags, fused parts or gaps): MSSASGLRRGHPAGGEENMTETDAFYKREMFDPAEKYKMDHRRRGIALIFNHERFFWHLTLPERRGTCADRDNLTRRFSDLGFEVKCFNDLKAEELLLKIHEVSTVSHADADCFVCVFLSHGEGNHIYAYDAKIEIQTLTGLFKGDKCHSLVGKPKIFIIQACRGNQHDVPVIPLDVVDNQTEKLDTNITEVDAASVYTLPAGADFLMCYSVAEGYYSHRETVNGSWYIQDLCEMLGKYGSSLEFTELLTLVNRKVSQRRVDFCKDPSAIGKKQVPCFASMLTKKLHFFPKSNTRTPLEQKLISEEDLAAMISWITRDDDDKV
Protocol: COS-7 cells were co-transfected with the 1212 amino acid HTT fragment (SEQ ID NO: 3) and the full length human caspase-6 enzyme (SEQ ID NO:4). The co-transfected cells were exposed to either 10 uM of the PG3d compound, 3 uM of the Q-VD-Oph pan-caspase inhibitor or were treated with DMSO as a control. An aliquot of the cell lysates were subjected to Western blotting to detect HTT fragments with the Htt antibody 2166 (Millipore) and the presence of caspase-6 was detected using the HD91 antibody (Ehrnhoefer et al, HMG, 2014. 23(3):717-29). The remaining cell lysates (500 ug protein) were immunoprecipitated with 5 ug of Caspase-6 antibody for 16 hrs at 4 C. The immunoprecipitated proteins were then applied to acrylamide gels and immunoblotted to detect either the HTT fragments or the presence of the active caspase 6 enzyme using the antibodies described above.
As expected, the DMSO control lysates reveal a variety of Htt fragments within the immunocomplexes, including 513AA fragment generated by caspase-3 cleavage, the full-length 1212AA Htt and the 586AA fragment generated by caspase-6 cleavage. When the cells are treated with the pan-caspase inhibitor Q-VD-OPh, the amount of Htt cleavage fragments interacting with caspase-6 is reduced and it is evident that caspase-6 is primarily interacting with the 1212 AA Htt.

With `O=c1oc(C#Cc2ccccc2)nc(O)c1Cc1ccccc1` [PG-3d, 5-Benzyl-4-hydroxy-2-(phenylethynyl)-6H-1,3-oxazin-6-one] the “level of active caspase 6 enzyme” value ([1]; 10 uM compound) was “decreased amount of active enzyme”, the “generation of the 586 aa Htt cleavage fragment” value ([1]; 10 uM compound vs untreated cells) was “significant reduction” and the IC50 [2] was 2600 nM. For the same compound, the “interaction between 1212AA Htt and caspase-6 (co-immunoprecipitated Htt)” value [3] was “significantly reduces”.
